Source: patent US7189856B2 (priority 2001, dated 2007)
Structures can show the parent of a compound that is named as a salt.

Target: T1, human SSTR2 receptors (Homo sapiens, UniProt P30874)
T1 construct: expressed in transfected cells; host or cells: CHO-K1 cells
Assay: inhibition of [125I] Somatostatin binding to human SSTR2 receptors expressed in CHO-K1 cells
Protocol: FIG. 1 illustrates the logarithmic concentration-response curves for inhibition of [^125I] […] Test compounds were tested in duplicate at all concentrations. The average percent inhibition of duplicate was used for plotting the displacement curves, fitted by non-linear regression.
FIG. 2 illustrates the logarithmic concentration-response curves for inhibition of [^125I] […] Test compounds were tested in duplicate at all concentrations. The average percent inhibition of duplicate was used for plotting the displacement curves, fitted by non-linear regression.

T1 sequence (P30874 whole entry): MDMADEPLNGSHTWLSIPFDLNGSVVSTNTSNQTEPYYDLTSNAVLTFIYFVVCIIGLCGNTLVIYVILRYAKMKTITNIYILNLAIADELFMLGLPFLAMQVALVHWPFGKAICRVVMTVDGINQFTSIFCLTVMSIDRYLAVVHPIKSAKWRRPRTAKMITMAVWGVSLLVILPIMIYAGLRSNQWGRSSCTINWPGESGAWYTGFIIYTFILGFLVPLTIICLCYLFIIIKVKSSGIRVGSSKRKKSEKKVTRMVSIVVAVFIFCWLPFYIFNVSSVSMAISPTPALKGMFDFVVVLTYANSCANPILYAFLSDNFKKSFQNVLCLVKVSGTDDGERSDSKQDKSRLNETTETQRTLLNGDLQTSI

| IC50 | Compound |
| --- | --- |
| 0.29 ± 0.0395 nM | CN(C)C(=O)c1cc(S(=O)(=O)N2C(=O)N(CC3CCC[C@@H](CN)C3)C(=O)[C@@H]2Cc2c[nH]c3ccccc23)ccc1Oc1ccc(O)c(Cl)c1 (single isomer, unassigned) [Example 15a HCl salt] |
| 1.3 ± 0.183 nM | CN(C)C(=O)c1cc(S(=O)(=O)N2C(=O)N(C[C@@H]3CCC[C@H](CN)C3)C(=O)[C@@H]2Cc2c[nH]c3ccccc23)ccc1Oc1ccc(O)c(Cl)c1 (single isomer, unassigned) [Example 15b HCl salt] |
